Laboratory results: ChEMBL document CHEMBL1148101, “Structure/activity relationship of some natural monoterpenes as acaricides against Psoroptes cuniculi” (1995)

Columns and labels:
Assay type in all cases: functional
Psoroptes ovis [1] = assay: Acaricidal activity against Psoroptes cuniculi at 1 uL after 24 hrs by inhalation assay
Psoroptes ovis [2] = assay: Acaricidal activity against Psoroptes cuniculi at 6 uL after 24 hrs by inhalation assay
Psoroptes ovis [3] = assay: Acaricidal activity against Psoroptes cuniculi at 1% dilution in physiological saline after 48 hrs by direct contact assay
Psoroptes ovis [4] = assay: Acaricidal activity against Psoroptes cuniculi at 3 uL after 24 hrs by inhalation assay
Psoroptes ovis [5] = assay: Acaricidal activity against Psoroptes cuniculi at 0.25% dilution in physiological saline after 48 hrs by direct contact assay
Psoroptes ovis [6] = assay: Acaricidal activity against Psoroptes cuniculi at 0.125% dilution in physiological saline after 48 hrs by direct contact assay
Psoroptes ovis [7] = assay: Acaricidal activity against Psoroptes cuniculi at 18 uL after 24 hrs by inhalation assay
Psoroptes ovis [8] = assay: Acaricidal activity against Psoroptes cuniculi at 36 uL after 24 hrs by inhalation assay

| SMILES | Activity (Psoroptes ovis [1]) [%] | Activity (Psoroptes ovis [2]) [%] | Activity (Psoroptes ovis [3]) [%] | Activity (Psoroptes ovis [4]) [%] | Activity (Psoroptes ovis [5]) [%] | Activity (Psoroptes ovis [6]) [%] | Activity (Psoroptes ovis [7]) [%] | Activity (Psoroptes ovis [8]) [%] |
| --- | --- | --- | --- | --- | --- | --- | --- | --- |
| CC1=CC[C@@H](C(C)(C)O)CC1 [ALPHA-TERPINEOL] | 73.3 | 98.3 | 100 | 98.3 | 100 | 100 | – | – |
| CC(C)=CCC/C(C)=C\CO [NEROL] | 36.7 | 100 | 100 | 83.3 | 98.3 | 100 | – | – |
| C=CCc1ccc(OC)cc1 [ESTRAGOLE] | 0 | 5 | 100 | 6.7 | 63.3 | 0 | – | – |
| C=CC(=C)CCC=C(C)C [MYRCENE] | 0 | 6.7 | 0 | 5.2 | 0 | 0 | – | – |
| C=CCc1ccc(O)c(OC)c1 [EUGENOL] | 86.7 | 100 | 100 | 96.7 | 100 | 100 | – | – |
| CC1CCC(C(C)C)C(O)C1 (stereo not drawn) [MENTHOL] | – | 100 | 100 | – | 100 | 100 | 100 | 100 |
| C=C(C)[C@H]1CC=C(C)CC1 [D-LIMONENE] | 0 | 0 | 0 | 0 | 0 | 0 | – | – |
| CC1=CCC(C(C)C)=CC1 [GAMMA-TERPINENE] | 0 | 0 | 0 | 0 | 0 | 0 | – | – |
| C=CC(C)(CCC=C(C)C)OC(C)=O (stereo not drawn) [LINALYL ACETATE] | 0 | 20 | 40 | 13.3 | 35 | 5 | – | – |
| C=CC(C)(O)CCC=C(C)C (stereo not drawn) [LINALOOL] | 36.7 | 100 | 100 | 75 | 100 | 97 | – | – |
| Cc1ccc(C(C)C)c(O)c1 [THYMOL] | – | 100 | 100 | – | 100 | 100 | 100 | 100 |
| CC(C)=CCC/C(C)=C/CO [GERANIOL] | 95 | 96.7 | 100 | 93.3 | 100 | 100 | – | – |
| CC1=CCC(O)(C(C)C)CC1 (stereo not drawn) [TERPINEOL] | 5 | 100 | 100 | 41.7 | 100 | 100 | – | – |
